In brackets after ≈: the same amount, converted by molar mass.
Key:
U-937 = test: Induction of human U937 cell differentiation after 4 days by flow cytometry; format: functional, cell-based; settings: U-937, 96 h
[1] = Induction of bone marrow cell differentiation isolated from ER-HOXA9 fusion protein expressed mouse harboring GFP-lysozyme assessed as upregulation of CD11b/MAC1 after 4 days by flow cytometry; format: functional, cell-based; settings: 96 h
THP-1 = test: Induction of human THP1 cell differentiation after 4 days by flow cytometry; format: functional, cell-based; settings: THP-1, 96 h
[2] = biological target: Dihydroorotate dehydrogenase (quinone), mitochondrial (Homo sapiens, UniProt Q02127); test: Inhibition of human recombinant DHODH
[3] = Stability of the compound in human plasma for 5 hrs; format: ADME, cell-free
[4] = Stability of the compound in PBS for 24 hrs; format: physicochemical; settings: buffer
[5] = Protein binding in human plasma; format: ADME, cell-free; settings: read-out: PPB
[6] = Solubility of the compound in PBS at pH 7.4; format: physicochemical
[7] = Protein binding in mouse plasma; format: ADME, cell-free; settings: read-out: PPB

Sequence of Dihydroorotate dehydrogenase (quinone), mitochondrial (Q02127 whole entry): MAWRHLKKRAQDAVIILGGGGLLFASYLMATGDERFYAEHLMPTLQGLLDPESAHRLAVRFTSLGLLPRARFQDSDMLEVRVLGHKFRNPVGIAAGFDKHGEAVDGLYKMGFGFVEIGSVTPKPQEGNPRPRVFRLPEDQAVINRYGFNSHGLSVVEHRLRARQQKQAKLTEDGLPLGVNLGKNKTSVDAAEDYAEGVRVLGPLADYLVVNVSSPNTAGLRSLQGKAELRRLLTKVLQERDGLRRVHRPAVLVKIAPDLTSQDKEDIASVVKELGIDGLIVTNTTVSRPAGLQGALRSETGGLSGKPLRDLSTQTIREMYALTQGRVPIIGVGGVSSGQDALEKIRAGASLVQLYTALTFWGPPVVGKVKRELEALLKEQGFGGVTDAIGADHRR

Row | SMILES | EC50 (U-937) [µM] | EC50 [1] [µM] | EC50 (THP-1) [µM] | IC50 [2] [µM] | also measured
1 | Cc1c(-c2ccc(-c3ccccc3F)cc2)nc2ccc(F)cc2c1C(=O)O [BREQUINAR] | 0.044 | 0.51 | 0.094 |  | 
2 | O=C(CCCNC(=O)c1ccc(C(F)(F)F)cc1)N[C@@H]1CCCc2ccccc21 |  |  |  | > 20 | 
3 | O=C(CCCNC(=O)c1ccc(Cl)cc1)N[C@@H]1CCCc2ccccc21 |  |  |  | > 20 | 
4 | O=C(CNC(=O)c1ccc(Cl)cc1)N[C@@H]1CCCc2ccccc21 |  |  |  | > 20 | 
5 | O=C(O)c1cccnc1Nc1cccc(C(F)(F)F)c1 [NIFLUMIC ACID] | > 20 | > 20 | > 20 | 17 | 
6 | O=C(CCCNC(=O)c1ccc(Cl)c(Cl)c1)N[C@@H]1CCCc2ccccc21 |  |  |  | > 20 | 
7 | O=C(CCCNC(=O)c1ccc(OC(F)(F)F)cc1)N[C@@H]1CCCc2ccccc21 |  |  |  | > 20 | 
8 | O=C(CNC(=O)c1ccc(Cl)c(Cl)c1)N[C@@H]1CCCc2ccccc21 |  |  |  | > 20 | 
9 | O=C(CNC(=O)c1ccc(C(F)(F)F)cc1)N[C@@H]1CCCc2ccccc21 |  |  |  | > 20 | 
10 | O=C(CCNC(=O)c1ccccc1)N[C@@H]1CCCc2ccccc21 |  |  |  | 12.4 | 
11 | O=C(CNC(=O)c1ccc(OC(F)(F)F)cc1)N[C@@H]1CCCc2ccccc21 |  |  |  | > 20 | 
12 | Cc1c(Cl)cccc1Nc1ncccc1C(=O)O [CLONIXIN] | > 20 | > 20 | > 20 | 13 | 
13 | O=C(O)c1cccnc1Nc1ccccc1 | > 20 | > 20 | > 20 | 17.4 | 
14 | O=C(O)c1ccc(Cl)cc1Nc1ccccc1 | > 20 | > 20 | > 20 | > 20 | 
15 | O=C(CCNC(=O)c1ccc(F)cc1)N[C@@H]1CCCc2ccccc21 |  |  |  | 9.5 | 
16 | COc1ccc(Nc2ccccc2C(=O)O)cc1 | > 20 | > 20 | > 20 | 10 | 

The remaining molecules from weak to strong by IC50 [2], led by results:

Row | EC50 (U-937) [µM] | EC50 [1] [µM] | EC50 (THP-1) [µM] | IC50 [2] [µM] | SMILES | also measured
17 |  |  |  | 8.9 | N#Cc1ccc(C(=O)NCCC(=O)N[C@@H]2CCCc3ccccc32)cc1 | 
18 | > 20 | 16 | > 20 | 8 | Cc1c(Nc2ncccc2C(=O)O)cccc1C(F)(F)F [FLUNIXIN] | 
19 | 8.8 | 7.9 | 6.5 | 7.4 | O=C(CCNC(=O)c1cccc(Cl)c1)N[C@@H]1CCCc2ccccc21 | 
20 | 12 | 5 | 5.1 | 3.6 | COc1ccc(C(=O)NCCC(=O)N[C@@H]2CCCc3ccccc32)cc1 | 
21 | > 20 | > 20 | > 20 | 2.8 | O=C(O)c1cccnc1Nc1ccc(F)cc1 | 
22 | 4.4 | 4.7 | 4.3 | 2.7 | O=C(CCNC(=O)c1ccc2c(c1)OC(F)(F)O2)N[C@@H]1CCCc2ccccc21 | 
23 | 4.2 | 8.1 | 2.7 | 1.9 | Cc1ccc(C(=O)NCCC(=O)N[C@@H]2CCCc3ccccc32)cc1 | 
24 | 2.4 | 3.2 | 2.5 | 1.5 | O=C(CCNC(=O)c1ccc(Cl)c(Cl)c1)N[C@@H]1CCCc2ccccc21 | 
25 | 5.6 | 4.5 | 3.2 | 1.3 | O=C(CCNC(=O)c1ccc(Cl)cc1)N[C@@H]1CCCc2ccccc21 | 
26 | 2.7 | 3.6 | 2.5 | 0.91 | O=C(CCNC(=O)c1ccc(C(F)(F)F)cc1)N[C@@H]1CCCc2ccccc21 | 
27 | 8.8 | 1.8 | 6.5 | 0.56 | O=C(CCNC(=O)c1ccc(OC(F)(F)F)cc1)N[C@@H]1CCCc2ccccc21 | Stability [3]: Stable; Stability [4]: Stable; fraction unbound [5]: 0.01; solubility [6]: 2.5 µM (≈ 1.02 µg/mL); fraction unbound [7]: 0.01
28 | 5.6 | 3.7 | 7.7 | 0.5 | O=C(O)c1cccnc1Nc1ccc(OC(F)(F)F)cc1 | 
29 | 17 | 10 | > 20 | 0.42 | O=C(O)c1ccccc1Nc1ccc(Cl)cc1 | 
30 | 6.1 | 3 | 10.7 | 0.4 | O=C(O)c1cccnc1Nc1ccc(Cl)cc1 | 

Source: ChEMBL document CHEMBL3864183, “Development of ML390: A Human DHODH Inhibitor That Induces Differentiation in Acute Myeloid Leukemia” (ACS Med Chem Lett, 2016)
